Test results reported in US10323022B2, “Pyrrolidinyl urea, pyrrolidinyl thiourea and pyrrolidinyl guanidine compounds as TrkA kinase inhibitors” (Array BioPharma Inc., priority 2011, dated 2019).
pIC50: −log10 of the molar value.

Target: TrkA (Homo sapiens (Human), UniProt P04629)
Assay: TrkA Omnia Assay
Type: biochemical
Conditions: averaged IC50; 20 nM enzyme, 500 μM ATP, 10 μM peptide substrate
Procedure, shortened: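 Recombinant TrkA (20 nM) preincubated 10 min at ambient temperature with compound, then Omnia Tyr Peptide #4 (10 μM) and ATP (500 μM) added in 25 mM MOPS pH 7.5, 5 mM MgCl2, 0.005% Triton X-100. Fluorescence (ex 360/em 485 nm) followed continuously for 70 min; IC50 from initial rates by 4- or 5-parameter logistic fit.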

Sequence of TrkA (P04629 33-796): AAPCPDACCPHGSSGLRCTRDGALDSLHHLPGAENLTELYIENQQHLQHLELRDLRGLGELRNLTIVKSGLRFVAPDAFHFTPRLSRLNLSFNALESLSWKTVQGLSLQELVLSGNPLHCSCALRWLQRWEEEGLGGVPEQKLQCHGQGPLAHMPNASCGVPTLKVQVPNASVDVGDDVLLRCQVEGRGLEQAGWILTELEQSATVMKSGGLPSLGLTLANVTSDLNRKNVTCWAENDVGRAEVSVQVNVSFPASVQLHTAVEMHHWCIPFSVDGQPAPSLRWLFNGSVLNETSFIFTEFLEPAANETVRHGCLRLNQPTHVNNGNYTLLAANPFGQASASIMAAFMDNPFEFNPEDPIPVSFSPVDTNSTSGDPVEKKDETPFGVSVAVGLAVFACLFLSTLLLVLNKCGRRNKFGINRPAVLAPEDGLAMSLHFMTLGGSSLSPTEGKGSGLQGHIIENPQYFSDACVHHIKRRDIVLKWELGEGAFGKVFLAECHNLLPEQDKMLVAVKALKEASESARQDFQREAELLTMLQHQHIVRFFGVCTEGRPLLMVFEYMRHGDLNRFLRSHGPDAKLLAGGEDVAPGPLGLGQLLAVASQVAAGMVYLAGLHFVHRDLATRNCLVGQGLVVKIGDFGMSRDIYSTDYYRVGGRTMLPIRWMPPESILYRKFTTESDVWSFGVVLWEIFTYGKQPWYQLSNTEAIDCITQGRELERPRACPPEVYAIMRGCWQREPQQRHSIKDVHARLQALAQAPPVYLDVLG

| SMILES | pIC50 |
| --- | --- |
| COCCN1C[C@@H](NC(=O)Nc2cc(-c3ccc(C#N)cc3)nn2C)[C@H](c2ccc(F)c(F)c2)C1 [Example 60, 1-(3-(4-cyanophenyl)-1-methyl-1H-pyrazol-5-yl)-3-((3S,4R)-4-(3,4-difluorophenyl)-1-(2-methoxyethyl)pyrrolidin-3-yl)urea] | > 7.00 |
| COCCN1C[C@@H](NC(=O)Nc2cc(-c3cccc4nccn34)nn2C)[C@H](c2ccc(F)c(F)c2)C1 [Example 61, 1-((3S,4R)-4-(3,4-difluorophenyl)-1-(2-methoxyethyl)pyrrolidin-3-yl)-3-(3-(imidazo[1,2-a]pyridin-5-yl)-1-methyl-1H-pyrazol-5-yl)urea] | > 7.00 |
| COCCN1C[C@@H](NC(=O)Nc2c(Cl)c(-c3ccccc3)nn2-c2ccccc2)[C@H](c2ccc(F)c(F)c2)C1 [Example 62, 1-(4-chloro-1,3-diphenyl-1H-pyrazol-5-yl)-3-((3S,4R)-4-(3,4-difluorophenyl)-1-(2-methoxyethyl)pyrrolidin-3-yl)urea] | > 7.00 |
| COCCN1C[C@@H](NC(=O)Nc2c(Br)c(-c3ccccc3)nn2-c2ccccc2)[C@H](c2ccc(F)c(F)c2)C1 [Example 63, 1-(4-bromo-1,3-diphenyl-1H-pyrazol-5-yl)-3-((3S,4R)-4-(3,4-difluorophenyl)-1-(2-methoxyethyl)pyrrolidin-3-yl)urea] | > 7.00 |
| COCCN1C[C@@H](NC(=O)Nc2c(Cl)c(C)nn2-c2ccccc2)[C@H](c2ccc(F)c(F)c2)C1 [Example 64, 1-(4-chloro-3-methyl-1-phenyl-1H-pyrazol-5-yl)-3-((3S,4R)-4-(3,4-difluorophenyl)-1-(2-methoxyethyl)pyrrolidin-3-yl)urea] | > 7.00 |
| COCCN1C[C@@H](NC(=O)Nc2c(-c3ccccc3)c(C)nn2C)[C@H](c2ccc(F)c(F)c2)C1 [Example 65, 1-((3S,4R)-4-(3,4-difluorophenyl)-1-(2-methoxyethyl)pyrrolidin-3-yl)-3-(1,3-dimethyl-4-phenyl-1H-pyrazol-5-yl) urea] | > 7.00 |
| COCCN1C[C@@H](NC(=O)Nc2c(C#N)c(C)nn2-c2ccccc2)[C@H](c2ccc(F)c(F)c2)C1 [Example 66, 1-(4-cyano-3-methyl-1-phenyl-1H-pyrazol-5-yl)-3-((3S,4R)-4-(3,4-difluorophenyl)-1-(2-methoxyethyl)pyrrolidin-3-yl)urea] | > 7.00 |
| COCCN1C[C@@H](NC(=O)Nc2c(Cl)c(-c3ccccc3)nn2C)[C@H](c2ccc(F)c(F)c2)C1 [Example 67, 1-(4-chloro-1-methyl-3-phenyl-1H-pyrazol-5-yl)-3-((3S,4R)-4-(3,4-difluorophenyl)-1-(2-methoxyethyl)pyrrolidin-3-yl)urea] | 6.00 to 7.00 |
| COCCN1C[C@@H](NC(=O)Nc2c(Br)c(-c3ccccc3)nn2C)[C@H](c2ccc(F)c(F)c2)C1 [Example 68, 1-(4-bromo-1-methyl-3-phenyl-1H-pyrazol-5-yl)-3-((3S,4R)-4-(3,4-difluorophenyl)-1-(2-methoxyethyl)pyrrolidin-3-yl)urea] | 5.00 to 6.00 |
| COCCN1C[C@@H](NC(=O)Nc2c(C#N)c(CC#N)nn2-c2ccccc2)[C@H](c2ccc(F)c(F)c2)C1 [Example 70, 1-(4-cyano-3-(cyano-methyl)-1-phenyl-1H-pyrazol-5-yl)-3-((3S,4R)-4-(3,4-difluorophenyl)-1-(2-methoxyethyl)pyrrolidin-3-yl)urea] | > 7.00 |
| COCCN1C[C@@H](NC(=O)Nc2cc(C(C)(C)C#N)nn2-c2ccccc2)[C@H](c2ccc(F)c(F)c2)C1 [Example 71, 1-(3-(2-cyanopropan-2-yl)-1-phenyl-1H-pyrazol-5-yl)-3-((3S,4R)-4-(3,4-difluorophenyl)-1-(2-methoxyethyl)pyrrolidin-3-yl)urea] | > 7.00 |
| CCc1nn(-c2ccccc2)c(NC(=O)N[C@@H]2CN(CCOC)C[C@H]2c2ccc(F)c(F)c2)c1C [Example 72, 1-((3S,4R)-4-(3,4-difluorophenyl)-1-(2-methoxyethyl)pyrrolidin-3-yl)-3-(3-ethyl-4-methyl-1-phenyl-1H-pyrazol-5-yl)urea] | > 7.00 |
| COCCN1C[C@@H](NC(=O)Nc2cc(-c3cnn(C)c3)nn2-c2ccccc2)[C@H](c2ccc(F)c(F)c2)C1 [Example 73, 1-((3S,4R)-4-(3,4-difluorophenyl)-1-(2-methoxyethyl)pyrrolidin-3-yl)-3-(1′-methyl-1-phenyl-1H,1′H-3,4′-bipyrazol-5-yl)urea] | > 7.00 |
| COCCN1C[C@@H](NC(=O)Nc2c(C)c(OCC3COC3)nn2-c2ccccc2)[C@H](c2ccc(F)c(F)c2)C1 [Example 74, 1-((3S,4R)-4-(3,4-difluorophenyl)-1-(2-methoxyethyl)pyrrolidin-3-yl)-3-(4-methyl-3-(oxetan-3-ylmethoxy)-1-phenyl-1H-pyrazol-5-yl)urea] | > 7.00 |
| COCCN1C[C@@H](NC(=O)Nc2c(C)c(OCC3(C)COC3)nn2-c2ccccc2)[C@H](c2ccc(F)c(F)c2)C1 [Example 75, 1-((3S,4R)-4-(3,4-difluorophenyl)-1-(2-methoxyethyl)pyrrolidin-3-yl)-3-(4-methyl-3-((3-methyloxetan-3-yl)methoxy)-1-phenyl-1H-pyrazol-5-yl)urea] | > 7.00 |
| COCCN1C[C@@H](NC(=O)Nc2c(C)c(OC[C@H]3COC(C)(C)O3)nn2-c2ccccc2)[C@H](c2ccc(F)c(F)c2)C1 [Example 76, 1-((3S,4R)-4-(3,4-difluorophenyl)-1-(2-methoxyethyl)pyrrolidin-3-yl)-3-(3-(((S)-2,2-dimethyl-1,3-dioxolan-4-yl)methoxy)-4-methyl-1-phenyl-1H-pyrazol-5-yl)urea] | > 7.00 |
| COCCN1C[C@@H](NC(=O)Nc2c(C)c(OC[C@@H]3COC(C)(C)O3)nn2-c2ccccc2)[C@H](c2ccc(F)c(F)c2)C1 [Example 77, 1-((3S,4R)-4-(3,4-difluorophenyl)-1-(2-methoxyethyl)pyrrolidin-3-yl)-3-(3-(((R)-2,2-dimethyl-1,3-dioxolan-4-yl)methoxy)-4-methyl-1-phenyl-1H-pyrazol-5-yl)urea] | > 7.00 |
| COCCN1C[C@@H](NC(=O)Nc2c3c(nn2-c2ccccc2)CN(C(=O)OC(C)(C)C)C3)[C@H](c2ccccc2)C1 [Example 79, tert-butyl 3-(3-((3S,4R)-1-(2-methoxyethyl)-4-phenylpyrrolidin-3-yl)ureido)-2-phenyl-4,6-dihydropyrrolo[3,4-c] pyrazole-5(2H)-carboxylate] | 5.00 to 6.00 |
| COCCN1C[C@@H](NC(=O)Nc2c(C)c(C(C)C)nn2-c2ccccc2)[C@H](c2ccccc2)C1 [Example 80, 1-(3-isopropyl-4-methyl-1-phenyl-1H-pyrazol-5-yl)-3-((3S,4R)-1-(2-methoxy-ethyl)-4-phenylpyrrolidin-3-yl)urea] | > 7.00 |
| COCCN1C[C@@H](NC(=O)Nc2c3c(nn2-c2ccccc2)COC3)[C@H](c2ccccc2)C1 [Example 81, 1-((3S,4R)-1-(2-methoxy-ethyl)-4-phenylpyrrolidin-3-yl)-3-(2-phenyl-4,6-dihydro-2H-furo[3,4-c]pyrazol-3-yl)urea] | > 7.00 |
| COCCN1C[C@@H](NC(=O)Nc2c3c(nn2-c2ccccc2)CSC3)[C@H](c2ccccc2)C1 [Example 82, 1-((3S,4R)-1-(2-methoxy-ethyl)-4-phenylpyrrolidin-3-yl)-3-(2-phenyl-4,6-dihydro-2H-thieno[3,4-c]pyrazol-3-yl)urea] | > 7.00 |
| COCCN1C[C@@H](NC(=O)Nc2c(C)c(C)nn2-c2ccccc2)[C@H](c2cc(F)cc(F)c2)C1 [Example 83, 1-((3S,4R)-4-(3,5-difluoro-phenyl)-1-(2-methoxyethyl)pyrrolidin-3-yl)-3-(3,4-dimethyl-1-phenyl-1H-pyrazol-5-yl)urea] | > 7.00 |
| COCCN1C[C@@H](NC(=O)Nc2c3c(nn2-c2ccccc2)CCC3)[C@H](c2cc(F)cc(F)c2)C1 [Example 84, 1-((3S,4R)-4-(3,5-difluoro-phenyl)-1-(2-methoxyethyl)pyrrolidin-3-yl)-3-(2-phenyl-2,4,5,6-tetrahydro-cyclopenta[c]pyrazol-3-yl)urea] | > 7.00 |
| COCCN1C[C@@H](NC(=O)Nc2cc(C(C)C)nn2-c2ccccc2)[C@H](c2cc(F)cc(F)c2)C1 [Example 85, 1-((3S,4R)-4-(3,5-difluoro-phenyl)-1-(2-methoxyethyl)pyrrolidin-3-yl)-3-(3-isopropyl-1-phenyl-1H-pyrazol-5-yl)urea] | > 7.00 |
| COCCN1C[C@@H](NC(=O)Nc2cc(C)nn2-c2ccccc2)[C@H](c2cc(F)cc(F)c2)C1 [Example 86, 1-((3S,4R)-4-(3,5-difluoro-phenyl)-1-(2-methoxyethyl)pyrrolidin-3-yl)-3-(3-methyl-1-phenyl-1H-pyrazol-5-yl)urea] | > 7.00 |
| COCCN1C[C@@H](NC(=O)Nc2c3c(nn2-c2ccccc2)COC3)[C@H](c2cc(F)cc(F)c2)C1 [Example 88, 1-((3S,4R)-4-(3,5-difluoro-phenyl)-1-(2-methoxyethyl)pyrrolidin-3-yl)-3-(2-phenyl-4,6-dihydro-2H-furo[3,4-c]pyrazol-3-yl) urea] | > 7.00 |
| COCCN1C[C@@H](NC(=O)Nc2c3c(nn2-c2ccccc2)CSC3)[C@H](c2cc(F)cc(F)c2)C1 [Example 89, 1-((3S,4R)-4-(3,5-difluoro-phenyl)-1-(2-methoxyethyl)pyrrolidin-3-yl)-3-(2-phenyl-4,6-dihydro-2H-thieno[3,4-c]pyrazol-3-yl) urea] | > 7.00 |
| COCCN1C[C@@H](NC(=O)Nc2c3c(nn2-c2ccccc2)COC3)[C@H](c2ccc(F)c(F)c2)C1 [Example 90, 1-((3S,4R)-4-(3,4-difluoro-phenyl)-1-(2-methoxyethyl)pyrrolidin-3-yl)-3-(2-phenyl-4,6-dihydro-2H-furo[3,4-c]pyrazol-3-yl) urea] | > 7.00 |
| COCCN1C[C@@H](NC(=O)Nc2c3c(nn2-c2ccccc2)CSC3)[C@H](c2ccc(F)c(F)c2)C1 [Example 91, 1-((3S,4R)-4-(3,4-difluoro-phenyl)-1-(2-methoxyethyl)pyrrolidin-3-yl)-3-(2-phenyl-4,6-dihydro-2H-thieno[3,4-c]pyrazol-3-yl) urea] | > 7.00 |
